# Literature values in US6555583B2, “Therapies for treating pulmonary diseases” (SmithKline Beecham Corporation, priority 1998, dated 2003).
# Conditions: rolipram developed as an antidepressant
structure (smiles),measurement,value
COc1ccc(C2CNC(=O)C2)cc1OC1CCCC1 (stereo not shown) [rolipram],side effects in clinical studies,psychotropic activity and produces gastrointestinal effects
